These results are taken from US6399634B1, “Benzothiophene compounds, compositions, and methods” (Eli Lilly and Company, priority 1994, dated 2002).

In series [1] the test system is ovariectomized (OVX) rats. Nature of the series: Osteoporosis Test Procedure: femur bone density in OVX rats after 35 days of dosing. The settings on record: mean ± SEM. The format is in vivo, Sprague Dawley rats. The source says:
Seventy-five day old female Sprague Dawley rats (weight range of 200 to 225 g) were obtained from Charles River Laboratories (Portage, Mich.). The animals were either bilaterally ovariectomized (OVX) or exposed to a Sham surgical procedure at Charles River Laboratories, and then shipped after one week. Upon arrival, they were housed in metal hanging cages in groups of 3 or 4 per cage and had ad libitum access to food (calcium content approximately 0.5%) and water for one week. Room temperature was maintained at 22.2°±1.7° C. with a minimum relative humidity of 40%. The photoperiod in the room was 12 hours light and 12 hours dark. Following the General Preparation Procedure, infra, the rats were treated daily for 35 days (6 rats per treatment group) and sacrificed by decapitation on the 36th day. The 35 day time period was sufficient to allow maximal reduction in bone density, measured as described herein. At the time of sacrifice, the uteri were removed, dissected free of extraneous tissue, and the fluid contents were expelled before determination of wet weight in order to confirm estrogen deficiency associated with complete ovariectomy. […] The uteri were then placed in 10% neutral buffered formalin to allow for subsequent histological analysis. The right femurs were excised and scanned at the distal metaphysis 1 mm from the patellar groove with single photon absorptiometry. Results of the densitometer measurements represent a calculation of bone density as a function of the bone mineral content and bone width. In accordance with the above procedures, compounds of the present invention and ethynyl estradiol (EE2) in 20% hydroxypropyl β-cyclodextrin were orally administered to test animals. Data presented in Tables 5 and 6 below are the results of these treatments compared to intact and ovariectomized test animals. Results are reported as the mean±the standard error of the mean.

Series [2] relates to ovariectomized (OVX) rats. Nature of the series: Uterine wet weight in ovariectomized rat post-menopausal model, 4 days of dosing. The following applies: oral, daily for 4 days. The class given is in vivo, Sprague Dawley rats. Here is the method: In the examples illustrating the methods, a post-menopausal model was used in which effects of different treatments upon circulating lipids were determined.
(§1) Seventy-five day old female Sprague Dawley rats (weight range of 200 to 225 g) were obtained from Charles River Laboratories (Portage, Mich.). The animals were either bilaterally ovariectomized (OVX) or exposed to a Sham surgical procedure at Charles River Laboratories, and then shipped after one week. Upon arrival, they were housed in metal hanging cages in groups of 3 or 4 per cage and had ad libitum access to food (calcium content approximately 0.5%) and water for one week. Room temperature was maintained at 22.2°±1.7° C. with a minimum relative humidity of 40%. The photoperiod in the room was 12 hours light and 12 hours dark.
(§2) Dosing Regimen Tissue Collection. After a one week acclimation period (therefore, two weeks post-OVX) daily dosing with test compound was initiated. 17α-ethynyl estradiol or the test compound were given orally, unless otherwise stated, as a suspension in 1% carboxymethylcellulose or dissolved in 20% cyclodextrin. Animals were dosed daily for 4 days. Following the dosing regimen, animals were weighed and anesthetized with a ketamine: Xylazine (2:1, V:V) mixture and a blood sample was collected by cardiac puncture. The animals were then sacrificed by asphyxiation with CO2, the uterus was removed through a midline incision, and a wet uterine weight was determined.

Series [3] relates to ovariectomized (OVX) rats. Nature of the series: Serum cholesterol analysis in ovariectomized rats, 4 days of dosing. The format is in vivo, Sprague Dawley rats. The following applies: oral, daily for 4 days.
Text: as §1, §2
Cholesterol Analysis. Blood samples were allowed to clot at room temperature for 2 hours, and serum was obtained following centrifugation for 10 minutes at 3000 rpm. Serum cholesterol was determined using a Boehringer Mannheim Diagnostics high performance cholesterol assay. Briefly the cholesterol was oxidized to cholest-4-en-3-one and hydrogen peroxide. The hydrogen peroxide was then reacted with phenol and 4-aminophenazone in the presence of peroxidase to produce a p-quinone imine dye, which was read spectrophotemetrically at 500 nm. Cholesterol concentration was then calculated against a standard curve. The entire assay was automated using a Biomek Automated Workstation.

Series [4] concerns Uterine Eosinophil Peroxidase (EPO). Nature of the series: Uterine Eosinophil Peroxidase (EPO) Assay on uteri of dosed OVX rats. The format is in vivo, Sprague Dawley rats. The settings on record: female, Sprague Dawley, rat, in vivo, po, 4 days.
Text: as §1, §2
Uterine Eosinophil Peroxidase (EPO) Assay. Uteri were kept at 4° C. until time of enzymatic analysis. The uteri were then homogenized in 50 volumes of 50 mM Tris buffer (pH−8.0) containing 0.005% Triton X-100. Upon addition of 0.01% hydrogen peroxide and 10 mM o-phenylenediamine (final concentrations) in Tris buffer, increase in absorbance was monitored for one minute at 450 nm. The presence of eosonophils in the uterus is an indication of estrogenic activity of a compound. The maximal velocity of a 15 second interval was determined over the initial, linear portion of the reaction curve.

In series [5] the test system is MCF-7 breast adenocarcinoma cells. The experiment in a line: MCF-7 Proliferation Assay (tritiated thymidine). The format is cell-based. The following applies: Homo sapiens, MCF7; MCF-7 cells, 48 hours with drug, tritiated thymidine pulse 4 hours. As for the experimental part: MCF-7 breast adenocarcinoma cells (ATCC HTB 22) were maintained in MEM (minimal essential medium, phenol red-free, Sigma, St. Louis, Mo.) supplimented with 10% fetal bovine serum (FBS) (V/V), L-glutamine (2 mM), sodium pyruvate (1 mM), HEPES {(N-[2-hydroxyethyl]piperazine-N′-[2-ethanesulfonic acid]10 mM}, non-essential amino acids and bovine insulin (1 ug/mL) (maintenance medium). Ten days prior to assay, MCF-7 cells were switched to maintenance medium supplemented with 10% dextrancoated charcoal stripped fetal bovine serum (DCC-FBS) assay medium) in place of 10% FBS to deplete internal stores of steroids. MCF-7 cells were removed from maintenance flasks using cell dissociation medium (Ca++/Mg++ free HBSS (phenol red-free) supplemented with 10 mM HEPES and 2 mM EDTA). Cells were washed twice with assay medium and adjusted to 80,000 cells/mL. Approximately 100 μL (8,000 cells) were added to flat-bottom microculture wells (Costar 3596) and incubated at 37° C. in a 5% CO2 humidified incubator for 48 hours to allow for cell adherence and equilibration after transfer. Serial dilutions of drugs or DMSO as a diluent control were prepared in assay medium and 50 μL transferred to triplicate microcultures followed by 50 μL assay medium for a final volume of 200 μL. After an additional 48 hours at 37° C. in a 5% CO2 humidified incubator, microcultures were pulsed with tritiated thymidine (1 uCi/well) for 4 hours. Cultures were terminated by freezing at −70° C. for 24 hours followed by thawing and harvesting of microcultures using a Skatron Semiautomatic Cell Harvester. Samples were counted by liquid scintillation using a Wallac BetaPlace β counter. Results in Table 7 below show the IC50 for certain compounds of the present invention.

Series [6] concerns Uterine Eosinophil Peroxidase (EPO). Nature of the series: Uterine Eosinophil Peroxidase (EPO) Assay on uteri of dosed OVX rats. The following applies: ovariectomized rats. The format is in vivo, Sprague Dawley rats.
Where [7] appears, read: Table 5, oral, 0.01 mg/kg, OVX control 26.18, intact control 70.22, * P <= 0.05.
Setting [8] is: Table 5, oral, 0.1 mg/kg, OVX control 26.18, intact control 70.22, * P <= 0.05.

Counter-ions that a name gives are not always drawn.

On to `COc1ccc(-c2sc3cc(OC)ccc3c2Cc2ccc(OCCN3CCCCC3)cc2)cc1` [(p)-Ex16, [6-Methoxy-2-(4-Methoxyphenyl)Benzo[B]Thien-3-Yl][4-[2-(1-Piperidinyl)Ethoxy]Phenyl]Methane Hydrochloride], for which the “Bone Density” value was 26.78 ± 4.98 mg/cm/cm in series [1] (setting [7]); 43.30 ± 7.86 mg/cm/cm in series [1] (setting [8]); 33.62 ± 5.87 mg/cm/cm in series [1] (Table 5, oral, 1.0 mg/kg, OVX control 26.18, intact control 70.22, * P <= 0.05). Besides, the “Uterine Weight (% increase vs. OVX)” value in series [2] (dose 0.1 mg/kg) is reported as −13.5%; in series [2] (dose 1.0 mg/kg) it was −13.7%; in series [2] (dose 10.0 mg/kg) it was −24.6%. The “Serum Cholesterol (% decrease vs. OVX)” value in series [3] (dose 0.1 mg/kg) turned out to be 26.8%; in series [3] (dose 1.0 mg/kg) it was 59.4%; in series [3] (dose 10.0 mg/kg), 72.3%. The “Uterine EPO (V. max)” value in series [4] (0.1 mg/kg) came out at 5.8; in series [4] (1 mg/kg) it was 5.4; in series [4] (10 mg/kg), 6.2. Moreover, the IC50 in series [5] is 50 nM.

Take `CC(C)(C)C(=O)Oc1ccc(-c2sc3cc(OC(=O)C(C)(C)C)ccc3c2Cc2ccc(OCCN3CCCCC3)cc2)cc1` [(q)-Ex17, [6-{1,1,1-Trimethylacetyloxy}-2-(4-{1,1,1-Trimethylacetyloxy}Phenyl)Benzo[B]Thien-3-Yl][4-[2-(1-Piperidinyl)Ethoxy]Phenyl]Methane Hydrochloride]: the “Bone Density” value in series [1] (setting [7]) is 17.63 ± 2.94 mg/cm/cm; in series [1] (setting [8]), 24.77 ± 4.65 mg/cm/cm; in series [1] (Table 6, oral, 0.01 mg/kg, OVX control 32.46, intact control 81.27, * P <= 0.05), 36.44 ± 44 mg/cm/cm; in series [1] (Table 6, oral, 1.0 mg/kg, OVX control 32.46, intact control 81.27, * P <= 0.05), 36.07 ± 4.20 mg/cm/cm. The “Uterine Weight (% increase vs. OVX)” value in series [2] (dose 0.1 mg/kg) is recorded as −22.7%; in series [2] (dose 1.0 mg/kg), −32.4%; in series [2] (dose 10.0 mg/kg), −25.2%. Also, the “Serum Cholesterol (% decrease vs. OVX)” value in series [3] (dose 0.1 mg/kg) was determined as 55.8%; in series [3] (dose 1.0 mg/kg) it was 56.8%; in series [3] (dose 10.0 mg/kg) it was 58.8%. Moreover, the “Uterine EPO (V. max)” value worked out at 3.1 in series [4] (0.1 mg/kg), 3.0 in series [4] (1 mg/kg) and 2.8 in series [4] (10 mg/kg). Further, in series [5], the IC50 was 0.01 nM.

In the case of `C[C@]12CC[C@@H]3c4ccc(O)cc4CC[C@H]3[C@@H]1CC[C@@H]2O` [estradiol], the “Eosinophil infiltration into the uterus (number of eosinophils in the stromal layer, in words)” value in series [6] is recorded as “substantial, expected increase in eosinophil infiltration”.

The IC50 is the midpoint of a concentration-inhibition curve.
